# According to patent US5399543A, “3-[4-(phenylmethoxy)phenyl]-1-substituted-6-haloalkyl-uracil herbicides” (FMC Corporation, priority 1993, dated 1995):
# Tests used:
# [1] = system: Corn; assay: Preemergence herbicidal activity, corn; format: in vivo, Zea mays var. Agway 425X; settings: Zea mays, pre-emergence, 0.3 kg/ha, after 17-21 days, read-out: Preemergence herbicidal activity (% control), Corn
# Procedure: (§1) The 3-[4-(phenylmethoxy)phenyl]-1-substituted-6-haloalkyluracil herbicides of this invention were tested for pre- and postemergence herbicidal activity using a variety of crops and weeds. The test plants included soybean (Glycine max var. Williams), field corn (Zea mays var. Agway 425X), wheat (Triticum aestivum var. Wheaton), morningglory (Ipomea lacunosa or Ipomea hederacea), velvetleaf (Abutilon theophrasti), green foxtail (Setaria viridis), Johnsongrass (Sorghum halepense), blackgrass (Aloepecurus myosuroides), common chickweed (Stellaria media), and common cocklebur (Xanthium pensylvanicum).
# (§2) For preemergence testing, two disposable fiber flats (8 cm×15 cm×25 cm) for each rate of application of each candidate herbicide were filled to an approximate depth of 6.5 cm with steam-sterilized sandy loam soil. The soil was leveled and impressed with a template to provide five evenly spaced furrows 13 cm long and 0.5 cm deep in each flat. Seeds of soybean, wheat, corn, green foxtail, and johnsongrass were planted in the furrows of the first flat, and seeds of velvetleaf, morningglory, common chickweed, cocklebur, and blackgrass were planted in the furrows of the second flat. The five-row template was employed to firmly press the seeds into place. A topping soil of equal portions of sand and sandy loam soil was placed uniformly on top of each flat to a depth of approximately 0.5 cm. Flats for postemergence testing were prepared in the same manner except that they were planted 8-12 days prior to the preemergence flats and were placed in a greenhouse and watered, thus allowing the seeds to germinate and the foliage to develop.
# (§3) In both pre- and postemergence tests, a stock solution of the candidate herbicide was prepared by dissolving 0.27 g of the compound in 20 mL of water/acetone (50/50) containing 0.5% v/v sorbitan monolaurate. For an application rate of 3000 g/ha of herbicide a 10 mL portion of the stock solution was diluted with water/acetone (50/50) to 45 mL.
# (§4) The preemergence flats were initially subjected to a light water spray. The four flats were placed two by two along a conveyor belt (i.e., the two preemergence followed by the two postemergence flats). The conveyor belt fed under a spray nozzle mounted about ten inches above the postemergent foliage. The preemergent flats were elevated on the belt so that the soil surface was at the same level below the spray nozzle as the foliage canopy of the postemergent plants. The spray of herbicidal solution was commenced and once stabilized, the flats were passed under the spray at a speed to receive a coverage equivalent of 1000 L/ha. At this coverage the application rates are those shown in the above table for the individual herbicidal solutions. The preemergence flats were watered immediately thereafter, placed in the greenhouse and watered regularly at the soil surface. The postemergence flats were immediately placed in the greenhouse and not watered until 24 hours after treatment with the test solution. Thereafter they were regularly watered at ground level. After 17-21 days the plants were examined and the phytotoxicity data were recorded.
# (§5) Herbicidal activity data at selected application rates are given for various compounds of this invention in Table 2 and Table 3. The test compounds are identified by numbers which correspond to those in Table 1.
# (§6) Phytotoxicity data were taken as percent control. Percent control was determined by a method similar to the 0 to 100 rating system disclosed in "Research Methods in Weed Science," 2nd ed., B. Truelove, Ed.; Southern Weed Science Society; Auburn University, Auburn, Ala., 1977.
# [2] = system: Velvetleaf; assay: Postemergence herbicidal activity, velvetleaf; format: in vivo; settings: Abutilon theophrasti, post-emergence, 0.3 kg/ha, after 17-21 days, read-out: Postemergence herbicidal activity (% control), Velvetleaf
# Procedure: as §1, §2, §3, §4, §5, §6
# [3] = system: Cocklebur; assay: Postemergence herbicidal activity, cocklebur; format: in vivo, Xanthium pensylvanicum; settings: Xanthium strumarium, post-emergence, 0.3 kg/ha, after 17-21 days, read-out: Postemergence herbicidal activity (% control), Cocklebur
# Procedure: as §1, §2, §3, §4, §5, §6
# [4] = system: Corn; assay: Postemergence herbicidal activity, corn; format: in vivo, Zea mays var. Agway 425X; settings: Zea mays, post-emergence, 0.3 kg/ha, after 17-21 days, read-out: Postemergence herbicidal activity (% control), Corn
# Procedure: as §1, §2, §3, §4, §5, §6
# [5] = system: Wheat; assay: Preemergence herbicidal activity, wheat; format: in vivo, Triticum aestivum var. Wheaton; settings: Triticum aestivum, pre-emergence, 0.3 kg/ha, after 17-21 days, read-out: Preemergence herbicidal activity (% control), Wheat
# Procedure: as §1, §2, §3, §4, §5, §6
# [6] = system: Wheat; assay: Postemergence herbicidal activity, wheat; format: in vivo, Triticum aestivum var. Wheaton; settings: Triticum aestivum, post-emergence, 0.3 kg/ha, after 17-21 days, read-out: Postemergence herbicidal activity (% control), Wheat
# Procedure: as §1, §2, §3, §4, §5, §6
# [7] = system: Soybean; assay: Postemergence herbicidal activity, soybean; format: in vivo, Glycine max var. Williams; settings: Glycine max, post-emergence, 0.3 kg/ha, after 17-21 days, read-out: Postemergence herbicidal activity (% control), Soybean
# Procedure: as §1, §2, §3, §4, §5, §6
# [8] = system: Johnsongrass; assay: Preemergence herbicidal activity, johnsongrass; format: in vivo; settings: Sorghum halepense, pre-emergence, 0.3 kg/ha, after 17-21 days, read-out: Preemergence herbicidal activity (% control), Johnsongrass
# Procedure: as §1, §2, §3, §4, §5, §6
# [9] = system: Blackgrass; assay: Preemergence herbicidal activity, blackgrass; format: in vivo, Aloepecurus myosuroides; settings: Alopecurus myosuroides, pre-emergence, 0.3 kg/ha, after 17-21 days, read-out: Preemergence herbicidal activity (% control), Blackgrass
# Procedure: as §1, §2, §3, §4, §5, §6
# [10] = system: Morningglory; assay: Postemergence herbicidal activity, morningglory; format: in vivo, Ipomea lacunosa or Ipomea hederacea; settings: Ipomoea, post-emergence, 0.3 kg/ha, after 17-21 days, read-out: Postemergence herbicidal activity (% control), Morningglory
# Procedure: as §1, §2, §3, §4, §5, §6
# [11] = system: Green foxtail; assay: Postemergence herbicidal activity, green foxtail; format: in vivo; settings: Setaria viridis, post-emergence, 0.3 kg/ha, after 17-21 days, read-out: Postemergence herbicidal activity (% control), Green foxtail
# Procedure: as §1, §2, §3, §4, §5, §6
# [12] = system: Cocklebur; assay: Preemergence herbicidal activity, cocklebur; format: in vivo, Xanthium pensylvanicum; settings: Xanthium strumarium, pre-emergence, 0.3 kg/ha, after 17-21 days, read-out: Preemergence herbicidal activity (% control), Cocklebur
# Procedure: as §1, §2, §3, §4, §5, §6
# [13] = system: Green foxtail; assay: Preemergence herbicidal activity, green foxtail; format: in vivo; settings: Setaria viridis, pre-emergence, 0.3 kg/ha, after 17-21 days, read-out: Preemergence herbicidal activity (% control), Green foxtail
# Procedure: as §1, §2, §3, §4, §5, §6
# [14] = system: Morningglory; assay: Preemergence herbicidal activity, morningglory; format: in vivo, Ipomea lacunosa or Ipomea hederacea; settings: Ipomoea, pre-emergence, 0.3 kg/ha, after 17-21 days, read-out: Preemergence herbicidal activity (% control), Morningglory
# Procedure: as §1, §2, §3, §4, §5, §6
# [15] = system: Chickweed; assay: Postemergence herbicidal activity, chickweed; format: in vivo; settings: Stellaria media, post-emergence, 0.3 kg/ha, after 17-21 days, read-out: Postemergence herbicidal activity (% control), Chickweed
# Procedure: as §1, §2, §3, §4, §5, §6
# [16] = system: Blackgrass; assay: Postemergence herbicidal activity, blackgrass; format: in vivo, Aloepecurus myosuroides; settings: Alopecurus myosuroides, post-emergence, 0.3 kg/ha, after 17-21 days, read-out: Postemergence herbicidal activity (% control), Blackgrass
# Procedure: as §1, §2, §3, §4, §5, §6
# [17] = system: Velvetleaf; assay: Preemergence herbicidal activity, velvetleaf; format: in vivo; settings: Abutilon theophrasti, pre-emergence, 0.3 kg/ha, after 17-21 days, read-out: Preemergence herbicidal activity (% control), Velvetleaf
# Procedure: as §1, §2, §3, §4, §5, §6
# [18] = system: Johnsongrass; assay: Postemergence herbicidal activity, johnsongrass; format: in vivo; settings: Sorghum halepense, post-emergence, 0.3 kg/ha, after 17-21 days, read-out: Postemergence herbicidal activity (% control), Johnsongrass
# Procedure: as §1, §2, §3, §4, §5, §6
# [19] = system: Chickweed; assay: Preemergence herbicidal activity, chickweed; format: in vivo; settings: Stellaria media, pre-emergence, 0.3 kg/ha, after 17-21 days, read-out: Preemergence herbicidal activity (% control), Chickweed
# Procedure: as §1, §2, §3, §4, §5, §6
# [20] = system: Soybean; assay: Preemergence herbicidal activity, soybean; format: in vivo, Glycine max var. Williams; settings: Glycine max, pre-emergence, 0.3 kg/ha, after 17-21 days, read-out: Preemergence herbicidal activity (% control), Soybean
# Procedure: as §1, §2, §3, §4, §5, §6
smiles,measurement,setting,value
Cn1c(C(F)(F)F)cc(=O)n(-c2ccc(OCc3c(Cl)cccc3Cl)cc2)c1=O [Compound 7],activity at 300 g/ha,[1],0%
same,activity at 300 g/ha,[2],0%
same,activity at 300 g/ha,[3],0%
same,activity at 300 g/ha,[4],0%
same,activity at 300 g/ha,[5],0%
same,activity at 300 g/ha,[6],0%
same,activity at 300 g/ha,[7],0%
same,activity at 300 g/ha,[8],0%
same,activity at 300 g/ha,[9],0%
same,activity at 300 g/ha,[10],10%
same,activity at 300 g/ha,[11],90%
same,activity at 300 g/ha,[12],0%
same,activity at 300 g/ha,[13],0%
same,activity at 300 g/ha,[14],0%
same,activity at 300 g/ha,[15],0%
same,activity at 300 g/ha,[16],0%
same,activity at 300 g/ha,[17],0%
same,activity at 300 g/ha,[18],0%
same,activity at 300 g/ha,[19],0%
same,activity at 300 g/ha,[20],0%
COc1cccc(COc2ccc(-n3c(=O)cc(C(F)(F)F)n(C)c3=O)cc2)c1 [Compound 8],activity at 300 g/ha,[1],35%
same,activity at 300 g/ha,[2],100%
same,activity at 300 g/ha,[3],100%
same,activity at 300 g/ha,[4],85%
same,activity at 300 g/ha,[5],15%
same,activity at 300 g/ha,[6],10%
same,activity at 300 g/ha,[7],85%
same,activity at 300 g/ha,[8],80%
same,activity at 300 g/ha,[9],10%
same,activity at 300 g/ha,[10],100%
same,activity at 300 g/ha,[11],100%
same,activity at 300 g/ha,[12],0%
same,activity at 300 g/ha,[13],100%
same,activity at 300 g/ha,[14],65%
same,activity at 300 g/ha,[15],100%
same,activity at 300 g/ha,[16],10%
same,activity at 300 g/ha,[17],100%
same,activity at 300 g/ha,[18],100%
same,activity at 300 g/ha,[19],90%
same,activity at 300 g/ha,[20],10%
Cn1c(C(F)(F)F)cc(=O)n(-c2ccc(OCc3ccccc3)cc2F)c1=O [Compound 9],activity at 300 g/ha,[1],80%
same,activity at 300 g/ha,[2],100%
same,activity at 300 g/ha,[3],100%
same,activity at 300 g/ha,[4],70%
same,activity at 300 g/ha,[5],40%
same,activity at 300 g/ha,[6],20%
same,activity at 300 g/ha,[7],70%
same,activity at 300 g/ha,[8],100%
same,activity at 300 g/ha,[9],30%
same,activity at 300 g/ha,[10],100%
same,activity at 300 g/ha,[11],100%
same,activity at 300 g/ha,[12],50%
same,activity at 300 g/ha,[13],100%
same,activity at 300 g/ha,[14],100%
same,activity at 300 g/ha,[15],80%
same,activity at 300 g/ha,[16],0%
same,activity at 300 g/ha,[17],100%
same,activity at 300 g/ha,[18],95%
same,activity at 300 g/ha,[19],90%
same,activity at 300 g/ha,[20],85%
"Cn1c(C(F)(F)F)cc(=O)n(-c2ccc(OCc3ccc(Cl)cc3)cc2F)c1=O [Compound 10, 3-[4-(4-Chlorophenylmethoxy)-2-fluorophenyl]-1-methyl-6-trifluoromethyluracil]",activity at 300 g/ha,[1],20%
same,activity at 300 g/ha,[2],100%
same,activity at 300 g/ha,[3],100%
same,activity at 300 g/ha,[4],50%
same,activity at 300 g/ha,[5],20%
same,activity at 300 g/ha,[6],10%
same,activity at 300 g/ha,[7],95%
same,activity at 300 g/ha,[8],95%
same,activity at 300 g/ha,[9],50%
same,activity at 300 g/ha,[10],100%
same,activity at 300 g/ha,[11],100%
same,activity at 300 g/ha,[12],100%
same,activity at 300 g/ha,[13],100%
same,activity at 300 g/ha,[14],100%
same,activity at 300 g/ha,[15],100%
same,activity at 300 g/ha,[16],40%
same,activity at 300 g/ha,[17],100%
same,activity at 300 g/ha,[18],95%
same,activity at 300 g/ha,[19],100%
same,activity at 300 g/ha,[20],100%
Cn1c(C(F)(F)F)cc(=O)n(-c2ccc(OCc3ccc(F)cc3)cc2F)c1=O [Compound 11],activity at 300 g/ha,[1],85%
same,activity at 300 g/ha,[2],100%
same,activity at 300 g/ha,[3],100%
same,activity at 300 g/ha,[4],70%
same,activity at 300 g/ha,[5],20%
same,activity at 300 g/ha,[6],20%
same,activity at 300 g/ha,[7],80%
same,activity at 300 g/ha,[8],95%
same,activity at 300 g/ha,[9],20%
same,activity at 300 g/ha,[10],100%
same,activity at 300 g/ha,[11],100%
same,activity at 300 g/ha,[12],90%
same,activity at 300 g/ha,[13],100%
same,activity at 300 g/ha,[14],100%
same,activity at 300 g/ha,[15],80%
same,activity at 300 g/ha,[16],0%
same,activity at 300 g/ha,[17],100%
same,activity at 300 g/ha,[18],100%
same,activity at 300 g/ha,[19],100%
same,activity at 300 g/ha,[20],85%
